Data: PubChem BioAssay (NCI)
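Briefly, cells in 96-well plates were exposed to five compound concentrations for 48 h, and endpoints were estimated by linear interpolation. At the GI50, growth is halved. TGI denotes the concentration required for complete inhibition of growth.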

What was measured:
Assay in all cases: NCI tumour cell line growth inhibition, 48 h
[1] = test system: KM12 colon
[2] = test system: HOP-92 NSCLC
[3] = test system: OVCAR-3 ovarian
[4] = test system: SN12C renal
[5] = test system: SK-MEL-2 melanoma
[6] = test system: A498 renal
[7] = test system: EKVX NSCLC
[8] = test system: HL-60(TB) leukemia
[9] = test system: NCI-H522 lung
[10] = test system: SK-OV-3 ovarian

| Structure (SMILES) | TGI [1] [µM] | TGI [2] [µM] | TGI [3] [µM] | TGI [4] [µM] | TGI [5] [µM] | TGI [6] [µM] | TGI [7] [µM] | TGI [8] [µM] | TGI [9] [µM] | TGI [10] [µM] | GI50 [1] [µM] | GI50 [2] [µM] | GI50 [3] [µM] | GI50 [4] [µM] | GI50 [9] [µM] | GI50 [5] [µM] | GI50 [10] [µM] | GI50 [7] [µM] | GI50 [8] [µM] | GI50 [6] [µM] |
| --- | --- | --- | --- | --- | --- | --- | --- | --- | --- | --- | --- | --- | --- | --- | --- | --- | --- | --- | --- | --- |
| CCCCCCCCCCCCCCC(C)CCC(=O)O (configuration not stated) | > 100 | > 100 | > 100 | > 100 | > 100 | > 100 | > 100 | – | – | – | – | – | – | – | – | – | – | – | – | – |
| c1ccc2c3c([nH]c2c1)C1C2CCCCN2C(c2ccncc2)N1CC3 (configuration not stated) | > 100 | – | > 100 | > 100 | > 100 | – | > 100 | 52.5 | > 100 | > 100 | – | – | – | – | – | – | – | – | – | – |
| COc1ccc2c(c1)[n+](=O)c(C(C)=O)c(C)n2[O-] | > 100 | > 100 | > 100 | > 100 | > 100 | – | > 100 | > 100 | > 100 | > 100 | – | – | – | – | – | – | – | – | – | – |
| O=C1CCS/C(=N/S(=O)(=O)c2ccc(N3N=C4c5ccccc5CC4C3c3cccs3)cc2)N1Cc1ccccc1 (configuration not stated) | 41 | 83.7 | 60.8 | 38.3 | > 100 | – | 65.8 | – | 40 | 79.6 | 17.1 | 35.9 | 25.9 | 18.5 | 15.9 | 28 | 32.9 | 25.7 | – | – |
| COC(=O)[C@]1(C)CCC[C@]2(C)[C@@H]1CCC13C[C@@H](C=CO1)[C@@H](C)CC32O (some centres not stated) | – | > 100 | 46.8 | > 100 | > 100 | – | > 100 | > 100 | > 100 | > 100 | – | 22 | 17.8 | > 100 | > 100 | > 100 | > 100 | 2.07 | 45.4 | – |
| C#Cc1cccc(NC(=O)C2CCCN(C(=O)CCl)C2)c1 (configuration not stated) | > 82.5 | > 82.5 | > 82.5 | > 82.5 | > 82.5 | – | > 82.5 | > 82.5 | 32.7 | > 82.5 | > 82.5 | > 82.5 | > 82.5 | 19.7 | 14.7 | > 82.5 | > 82.5 | > 82.5 | > 82.5 | – |
| COc1cc2cc3c(c(O)c2c(O)c1-c1c(OC)cc2cc4c(c(O)c2c1O)C(=O)O[C@H](C)C4)C(=O)O[C@H](C)C3 | > 100 | 74.3 | 48.4 | 38.8 | > 100 | – | 63.9 | > 100 | > 100 | 84 | 38.8 | 31.3 | 21.2 | 18.3 | 44.3 | 50.7 | 26.5 | 16.2 | 95.9 | – |
| O=C(C(=O)c1cc(Br)ccc1O)c1cc(Br)ccc1O | 11.4 | 5.58 | 9.32 | 90.9 | 13.3 | – | 7.52 | 6.16 | 9.3 | 30.2 | 3.21 | 1.48 | 2.84 | 3.47 | 2.94 | 3.88 | 4.42 | 2.03 | 2.2 | – |
| COc1ccc(/C(C)=C(\c2ccc(Cl)cc2)c2ccc(OCCN3CCCCCC3)cc2)cc1F | 7.04 | 6.62 | 5.89 | 8.3 | 16.3 | – | > 16.7 | 7.11 | 9.71 | 16.6 | 1.7 | 2.57 | 2.98 | 2.96 | 3.92 | 5.23 | 5.05 | 5.54 | 3.25 | – |
| c1cncc(C2ONC3=NCCN32)c1 (configuration not stated) | > 100 | – | 27.8 | 31.7 | > 100 | 40.2 | > 100 | – | > 100 | > 100 | 21.2 | – | 2.86 | 14.6 | 9.59 | 68.8 | 26.2 | 23.2 | – | 16.6 |
| N#CC(NC(=O)CCl)=C(Cl)Cl | 4.17 | – | 2.46 | 3.26 | 5.24 | 3.88 | 3.81 | – | 1.83 | 16 | 1.88 | – | 1.13 | 1.73 | 0.437 | 2.16 | 5.05 | 1.85 | – | 1.86 |
| CN(C)c1ccc(C2CC(C)(O)Oc3cc4c(cc32)OCO4)cc1 (configuration not stated) | > 100 | > 100 | > 100 | > 100 | 63.8 | – | > 100 | > 100 | > 100 | > 100 | – | – | – | – | – | – | – | – | – | – |
| COCC1N=C(c2cc(OC)c(OC)c(OC)c2-c2cc3c(cc2[C@H](C)O)OCO3)O[C@H]1c1ccccc1 (some centres not stated) | > 100 | 86.4 | > 100 | > 100 | > 100 | – | > 100 | > 10 | – | > 100 | – | – | – | – | – | – | – | – | – | – |
